The values that follow come from US11986493B2 (University of Pittsburgh—Of the Commonwealth System of …, priority 2013, dated 2024).

Molecules are shown by their SMILES. Like-named read-outs stand apart in the source and are kept apart here.

In data set [1] the test system is hypoxic and normoxic subjects. Conditions: Ingram et al. (Am J. Phsiol. 298:H331-H339 (2010)); cited from earlier work.
The conditions of data set [2]: after inhalation. The text has this:
Measurement was made on mixed venous blood using PCW pullback samples at baseline (pre-dose) and at the maximally tolerated dose.

As for `O=NO` [nitrite, sodium nitrite], in data set [1], the “arterial and pulmonary vasodilation” value was “causes arterial and pulmonary vasodilation in hypoxic but not normoxic subjects”. Besides, the plasma nitrite concentration fell in the range of 5 to 7 µM in data set [2] (45 mg dose) and 8 to 10 µM in data set [2] (90 mg dose).
